Measured values reported in patent publication US20080152632A1, “Promoter-reporter cells for determining drug metabolism, drug interactions, and the effects of allotype variation” (Roslin Institute, priority 2005, published 2008).

B1: Oncostatin M: human Oncostatin M, late differentiation factor (protein, UniProt P13725 26-221, looked up)
Oncostatin-M: AAIGSCSKEYRVLLGQLQKQTDLMQDTSRLLDPYIRIQGLDVPKLREHCRERPGAFPSEETLRGLGRRGFLQTLNATLGCVLHRLADLEQRLPKAQDLERSGLNIEDLEKLQMARPNILGLRNNIYCMAQLLDNSDTAEPTKAGRGASQPPTPTPASDAFQRKLEGCRFLHGYHRFMHSVGRVFSKWGESPNRSRR

System: AFP promoter in hepatocyte lineage cells
Assay: AFP-eGFP reporter signaling in hepatocyte lineage cells generated using Activin
Assay type: cell-based, human
Details: H1-LZ-hAFP-eGFP derived cells; factor in HCM medium with HGF and EGF (1 μM dexamethazone from Day 11; 25 ng/mL Oncostatin M from Day 20)
Description: The H1-LZ-hAFP-eGFP line of hES cells (Example 2) were expanded in mEF conditioned medium supplemented with 8 ng/mL bFGF on Matrigel™-coated plates. Once they reached 90-95% confluence, the cells were fed and cultured for one day (designated Day 1) with RPMI 1640 containing B27 supplement without vitamin A (GibcoBRL/Invitrogen # 12587-010), 1 mM sodium butyrate (Sigma Cat. no. B5887), and 100 ng/mL Activin A (R&D Systems #338-AC-025), and then for another two days in the same medium except having 0.5 mM sodium butyrate (Stage I). There was substantial cell death, with the remaining cells now having mesenchymal cell morphology, and some forming rosettes.
Starting on Day 4, the cells were fed daily with Knockout DMEM (GibcoBRL/Invitrogen #10829-018) containing 20% Knockout Serum Replacement (GibcoBRL/Invitrogen #10828-028), 2 mM L-glutamine, 1×nonessential amino acids, 0.1 mM β-mercaptoethanol, and 1% DMSO (Stage II). […] Starting on Day 20, the cells were fed on alternate days with HCM Bullet Kit, supplemented with 10 ng/mL human HGF, 10 ng/mL human EGF, and 25 ng/mL human Oncostatin M (Stage V).
In response to the medium components introduced on Day 11, about 60-70% of the cells began expressing eGFP, peaking by Day 19 or 20. Following the change of medium components on […], eGFP expression gradually disappeared.

| Molecule | AFP-eGFP reporter expression |
| --- | --- |
| C[C@@H]1C[C@H]2[C@@H]3CCC4=CC(=O)C=C[C@]4(C)[C@@]3(F)[C@@H](O)C[C@]2(C)[C@@]1(O)C(=O)CO [dexamethazone] | expressed |
| B1 | decreased |
